Assay results reported in ChEMBL document CHEMBL3045334, “Microwave-assisted synthesis and evaluation of naphthalimides derivatives as free radical scavengers” (Med Chem Res, 2011).

test system: Radical scavenging activity; experiment: Antioxidant activity assessed as DPPH radical scavenging activity; type: functional; details: not given; call rule not given here

IC50	Compound
Not Active	O=C1OC(=O)c2ccc(Br)c3cccc1c23

same assay, conditions: read-out: IC50

IC50	Compound
231 µM	CCCNc1c([N+](=O)[O-])cc2c3c(cccc13)C(=O)N(CCC)C2=O
215 µM	CCCCNc1c([N+](=O)[O-])cc2c3c(cccc13)C(=O)N(CCCC)C2=O
179 µM	CCCN1C(=O)c2cccc3cccc(c23)C1=O
320 µM	CCCCNc1ccc2c3c(cccc13)C(=O)N(CCCC)C2=O
183 µM	CCCCN1C(=O)c2cccc3cccc(c23)C1=O
155 µM	O=C1c2cccc3cccc(c23)C(=O)N1CCO
351 µM	CCCNc1ccc2c3c(cccc13)C(=O)N(CCC)C2=O
206 µM	CCCCNc1ccc2c3c(cccc13)C(=O)N(C[C@@]1(C)CCC[C@]3(C)c4ccc(C(C)C)cc4CCC13)C2=O (some centres not stated)
210 µM	CCCNc1ccc2c3c(cccc13)C(=O)N(C[C@@]1(C)CCC[C@]3(C)c4ccc(C(C)C)cc4CCC13)C2=O (some centres not stated)
84.6 µM	O=C1c2cccc3c(NCc4ccccc4)ccc(c23)C(=O)N1Cc1ccccc1
231 µM	O=C1c2cccc3c(NCCO)c([N+](=O)[O-])cc(c23)C(=O)N1CCO

Second part, the compound before the results:

Compound	IC50
CC(C)c1ccc2c(c1)CCC1[C@@](C)(CN3C(=O)c4cccc5c(NCCO)ccc(c45)C3=O)CCC[C@]21C (some centres not stated)	221 µM
CC(C)c1ccc2c(c1)CCC1[C@@](C)(CN3C(=O)c4cccc5cccc(c45)C3=O)CCC[C@]21C (some centres not stated)	166 µM
O=C1c2cccc3cccc(c23)C(=O)N1Cc1ccccc1	143 µM
O=C1NC(=O)c2cccc3cccc1c23	149 µM
O=C1c2cccc3cccc(c23)C(=O)N1Nc1ccccc1	147 µM
O=C1c2cccc3c(Br)ccc(c23)C(=O)N1Cc1ccccc1	238 µM
Cc1ccc(Nc2c([N+](=O)[O-])cc3c4c(cccc24)C(=O)N(c2ccc(C)cc2)C3=O)cc1	42.2 µM
O=C1c2cccc3c(NCc4ccccc4)c([N+](=O)[O-])cc(c23)C(=O)N1Cc1ccccc1	43.1 µM
CC(C)c1ccc2c(c1)CCC1[C@@](C)(CN3C(=O)c4cccc5c(NCc6ccccc6)ccc(c45)C3=O)CCC[C@]21C (some centres not stated)	61.9 µM
NN1C(=O)c2cccc3cccc(c23)C1=O	187 µM
CC(C)c1ccc2c(c1)CCC1[C@@](C)(CN3C(=O)c4cccc5c(Br)ccc(c45)C3=O)CCC[C@]21C (some centres not stated)	208 µM
O=C1OC(=O)c2cc([N+](=O)[O-])c(Br)c3cccc1c23	54 µM
O=C1c2cccc3cccc(c23)C(=O)N1c1ccccc1	130 µM
O=C1OC(=O)c2cccc3cccc1c23 [1,8-NAPHTHALIC ANHYDRIDE]	1770 µM
Cc1cc(C(C)(C)C)c(O)c(C(C)(C)C)c1 [BUTYLATED HYDROXYTOLUENE]	65.8 µM
